From patent US20260209249A1, “NOVEL TRICYCLIC COMPOUND AS KRAS G12D INHIBITOR, AND USE THEREOF” (SK Biopharmaceuticals Co., priority 2022, published 2026)

Tests used:
[1] = system: ERK phosphorylation (pERK) induced by KRAS G12D mutation; test: Inhibitory activity against ERK phosphorylation (pERK) induced by KRAS G12D mutation, immunofluorescence assay in AsPC-1 cells; format: cell-based; details: Homo sapiens, ASPC1, 3 h drug treatment, pERK (Thr202/Tyr204) signal normalized to DAPI
Source text: Test Example 2: Measurement of Inhibitory Activity Against ERK Phosphorylation (pERK) Induced by KRAS G12D Mutation (Immunofluorescence Assay)
Immunofluorescence is a method used to detect specific substances within cells or tissues through antigen-antibody interactions, and allows for the identification of the presence or absence of specific proteins by using antibodies labeled with various fluorescent dyes. After a primary antibody that recognizes a specific protein selectively binds to the epitope, a fluorescent antibody (secondary antibody) is bound to the primary antibody.
It was confirmed as follows that the compounds according to an embodiment of the present application inhibit phosphorylation of extracellular signal-regulated kinases (Phospho-ERK, pERK) induced by KRAS G12D mutation.
AsPC-1 cells were seeded at a density of 10,000 cells/well in RPMI-1640 medium containing 10% FBS and 1% Penicillin-Streptomycin in 384-well plates (Perkinelmer, #6057300) and allowed to attach for 16 h. After the cells attached to the plate, the cells were treated with drugs at a maximum concentration of 10 μM with a 3-fold serial dilution. After 3 h of drug treatment, the medium was removed and the cells were treated with 50 μL of 4% formaldehyde (Biosesang, #PC2031-050-00) for 20 min and washed three times with 50 μL of phosphate buffered saline (PBS).
50 μL of PBS containing 0.3% Triton X-100 (Sigma, #T8787-250 mL) was added and reacted for 20 minutes to allow antibody penetration into cells, and then the plate was washed three times with 50 μL of PBS. To block nonspecific binding of antibodies to the plate, 50 μL of PBS containing 2% BSA (sigma, #A7906-500G) and 0.01% Tween-20 (Sigma, #P1379-500 mL) (hereinafter referred to as PBS-T) was added, and reacted at room temperature for 2 hours.
To detect pERK, the primary antibody (cell signaling, #9101) was diluted 1:500 in PBS-T containing 2% BSA, 50 μL was added, and the plate was stored in a refrigerator at 4° C. for 16 hours to react, followed by washing three times with 50 μL of PBS-T. To visualize the primary antibody, the secondary antibody, i.e., anti-rabbit-Alexa Fluor 488 (ThermoFisher, #A11008), was diluted 1:1000 in PBS-T containing 2% BSA, 50 μL was added, and after reaction at room temperature for 1 hour, the plate was washed three times with 50 μL of PBS-T. Next, to visualize the nuclei of cells, DAPI (Thermofisher, #62248, 1 mg/mL) was diluted 1:1000 in PBS-T, 50 μL each was added, reacted at room temperature for 10 minutes, and washed three times with 50 μL of PBS-T. 50 μL of PBS-T was added to each well, and the plate was read for fluorescence value using HCS equipment (MOLECULAR DEVICES/ImageXpress Micro).
Data analysis was performed by normalizing the pERK (Thr202/Tyr204) signal to the DAPI signal and calculating the percentage relative to the DMSO as a control. The IC50 value was determined by fitting a four-parameter dose-response curve using the GraphPad Prism software (version 8.4.3), and interpolating the concentration at which 50% inhibition occurred. The results of calculating the inhibitory efficacy of the compounds according to one embodiment of the present application against KRAS G12D mutation-induced pERK activity are shown in Table 3.

[2] = system: KRAS G12D mutant pancreatic cancer cell line AsPC-1; test: Cell viability assay using KRAS G12D mutant cells (AsPC-1, 3D culture, celltiter-glo 3D); format: cell-based; details: Homo sapiens, ASPC1, 5th day after compound treatment
Procedure: Test Example 3: Cell Viability Assay Using KRAS G12D Mutant Cells
The KRAS G12D mutant pancreatic cancer cell line AsPC-1 was obtained from the Korean Cell Line Bank (KCLB) and maintained in 100-mm dishes or T75 (75 cm^2) flasks using RPM11640+10% fetal bovine serum (FBS)+1% Penicillin-Streptomycin medium. The cells were cultured at 37° C. with 5% CO2. The number of viable cells was counted using Countess (Invitrogen).
When AsPC-1 cells reached 85-100% confluence in the flask, the cells were harvested using 1× trypsin/EDTA solution, and seeded into a 96-well plate for 3D culture at 1000 cells/100 μL/well. The next day, the compounds were diluted ⅕ with DMSO from 10 μM or 50 μM to 0.0001 μM or 0.0006 μM and treated 1:1 (v/v) in the plate where the cells were seeded.
Cell culture was terminated on the 5th day after compound treatment, and cell viability at each concentration was measured using the celltiter-glo 3D cell viability assay kit.
Cell viability assays were normalized to 100% for the DMSO-treated group and expressed as a percentage of the number of viable cells when treated with the compound.
Cell viability %=(average RLU of group treated with test substance−average RLU of untreated group)/(average RLU of group treated with DMSO−average RLU of untreated group)×100
The data were modeled using GraphPad Prism 9 (GraphPad Software) by applying a nonlinear regression curve fit with a four-parameter sigmoidal dose-response curve to determine cell viability as a function of compound concentration. The 50% inhibitory concentration (IC50) corresponds to the concentration at which the curve intersects the midpoint of cell viability. The results of the inhibitory effect of the compounds according to one embodiment of the present application on the viability of KRAS G12D mutant cells are presented in Table 4.

[3] = biological target: T1, GDP-KRAS G12D mutant protein (Homo sapiens, UniProt P01116, G12D); test: Differential scanning fluorimetry (DSF) binding affinity to GDP-KRAS G12D mutant protein; details: DSF thermal shift, 10 μM compound, 4 μg KRAS protein
T1 construct: purchased Daegu Gyeongbuk Medical Innovation Foundation (DGMIF), made to order
Summary of the method: (§1)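 Thermal shift ΔTm was measured at 10 μM compound over a 25–99 °C ramp (0.05 °C/s), read at 580 nm ex/623 nm em with SYPRO Orange (2×). The protein (4 μg) was preincubated with compound for 30 min at room temperature, in 50 mM HEPES pH 7.5 for GppNHp-KRAS G12D or in kit buffer for GDP-KRAS G12D.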

[4] = biological target: T2, GppNHp-KRAS G12D mutant protein (Homo sapiens, UniProt P01116, G12D); test: Differential scanning fluorimetry (DSF) binding affinity to GppNHp-KRAS G12D mutant protein; details: DSF thermal shift, 10 μM compound, 4 μg KRAS protein, 50 mM HEPES (pH 7.5)
T2 construct: purchased Daegu Gyeongbuk Medical Innovation Foundation (DGMIF), made to order
Summary of the method: as §1

Compound | IC50 [1] [nM] | IC50 [2] [nM] | GDP-KRAS G12D (ΔTmD, ° C.) [3] [°C] | GppNHp-KRAS G12D (ΔTmD, ° C.) [4] [°C]
C#Cc1c(F)ccc2cc(O)cc(-c3cc4nc(OCC5(CN6CCC7(CC6)CC7(F)F)CC5)nc(N5C[C@H]6CC[C@@H](C5)N6)c4c4cn(C)nc34)c12 [Example 73, 4-(9-((1R,5S)-3,8-diazabicyclo[3.2.1]octan-3-yl)-7-((1-((1,1-difluoro-6-azaspiro[2.5]octan-6-yl)methyl)cyclopropyl)methoxy)-2-methyl-2H-pyrazolo[4,3-f]quinazolin-4-yl)-5-ethynyl-6-fluoronaphthalen-2-ol] | 49 | 37 | 11.97 | 5.60
C#Cc1c(F)ccc2cc(O)cc(-c3c(F)c4nc(OC[C@@]56CCCN5CC(=C(F)F)C6)nc(N5C[C@H]6CC[C@@H](C5)N6)c4c4cn(C)nc34)c12 [Example 90, 4-(9-((1R,5S)-3,8-diazabicyclo[3.2.1]octan-3-yl)-7-(((S)-2-(difluoromethylene)tetrahydro-1H-pyrrolizin-7a(5H)-yl)methoxy)-5-fluoro-2-methyl-2H-pyrazolo[4,3-f]quinazolin-4-yl)-5-ethynyl-6-fluoronaphthalen-2-ol] | 5 | 4 | 16.27 | 11.38
C#Cc1c(F)ccc2cc(O)cc(-c3cc4nc(OC[C@@]56CCCN5CC(=C(F)F)C6)nc(N5C[C@H]6CC[C@@H](C5)N6)c4n4ccnc34)c12 [Example 37, 4-(1-((1R,5S)-3,8-diazabicyclo[3.2.1]octan-3-yl)-3-(((S)-2-(difluoromethylene)tetrahydro-1H-pyrrolizin-7a(5H)-yl)methoxy)imidazo[1′,2′:1,6]pyrido[3,2-d]pyrimidin-6-yl)-5-ethynyl-6-fluoronaphthalen-2-ol] | 12 | 29 | 11.53 | 5.76
C#Cc1c(F)ccc2cc(O)cc(-c3c(F)c4nc(OC[C@@]56CCCN5C[C@H](F)C6)nc(NCC5(N(C)C)CCC5)c4c4cc(C)oc34)c12 [Example 48, 4-(1-(((1-(dimethylamino)cyclobutyl)methyl)amino)-5-fluoro-3-(((2R,7aS)-2-fluorotetrahydro-1H-pyrrolizin-7a(5H)-yl)methoxy)-8-methylfuro[3,2-n]quinazolin-6-yl)-5-ethynyl-6-fluoronaphthalen-2-ol] | 333 | 136 |  | 
C#Cc1c(F)ccc2cc(N)cc(-c3c(F)c4nc(OC[C@@]56CCCN5C[C@H](F)C6)nc(N5C[C@H]6CC[C@@H](C5)N6)c4c4cn(C)nc34)c12 [Example 81, 4-(9-((1R,5S)-3,8-diazabicyclo[3.2.1]octan-3-yl)-5-fluoro-7-(((2R,7aS)-2-fluorotetrahydro-1H-pyrrolizin-7a(5H)-yl)methoxy)-2-methyl-2H-pyrazolo[4,3-n]quinazolin-4-yl)-5-ethynyl-6-fluoronaphthalen-2-amine] | 81 | 280 | 10.04 | 6.66
C#Cc1c(F)ccc2cc(O)cc(-c3c(F)c4nc(OC[C@@]56CCCN5C[C@H](F)C6)nc(N5CC6CCC5CN6)c4c4cn(C)nc34)c12 (stereo partly drawn) [Example 88, 4-(9-(2,5-diazabicyclo[2.2.2]octan-2-yl)-5-fluoro-7-(((2R,7aS)-2-fluorotetrahydro-1H-pyrrolizin-7a(5H)-yl)methoxy)-2-methyl-2H-pyrazolo[4,3-n]quinazolin-4-yl)-5-ethynyl-6-fluoronaphthalen-2-ol] | 484 | 734 | 6.35 | 5.31
Cc1cc2c(o1)c(-c1cc(O)cc3ccc(F)c(F)c13)c(F)c1nc(OC[C@@]34CCCN3C[C@H](F)C4)nc(N3C[C@H]4CC[C@@H](C3)N4)c12 [Example 46, 4-(1-((1R,5S)-3,8-diazabicyclo[3.2.1]octan-3-yl)-5-fluoro-3-(((2R,7aS)-2-fluorotetrahydro-1H-pyrrolizin-7a(5H)-yl)methoxy)-8-methylfuro[3,2-n]quinazolin-6-yl)-5,6-difluoronaphthalen-2-ol] | 45 | 25 |  | 
C#Cc1c(F)ccc2cc(O)cc(-c3c(F)c4nc(OCC5(CN6CC[C@@H](F)C6)CCC5)nc(N5C[C@H]6CC[C@@H](C5)N6)c4c4cn(C)nc34)c12 [Example 98, 4-(9-((1R,5S)-3,8-diazabicyclo[3.2.1]octan-3-yl)-5-fluoro-7-((1-(((R)-3-fluoropyrrolidin-1-yl)methyl)cyclobutyl)methoxy)-2-methyl-2H-pyrazolo[4,3-f]quinazolin-4-yl)-5-ethynyl-6-fluoronaphthalen-2-ol] |  | 110 | 11.43 | 5.79
C#Cc1c(F)ccc2cc(O)cc(-c3c(F)c4nc(OC[C@]56CC(=C)CN5C[C@@H](F)C6)nc(N5C[C@H]6CC[C@@H](C5)N6)c4c4cn(C)nc34)c12 [Example 100, 4-(9-((1 R,5S)-3,8-diazabicyclo[3.2.1]octan-3-yl)-5-fluoro-7-(((2S,7aR)-2-fluoro-6-methylenetetrahydro-1H-pyrrolizin-7a(5H)-yl)methoxy)-2-methyl-2H-pyrazolo[4,3-n]quinazolin-4-yl)-5-ethynyl-6-fluoronaphthalen-2-ol] |  | 29 | 14.50 | 8.92
CCc1c(F)ccc2cc(O)cc(-c3c(F)c4nc(OC[C@@]56CCCN5C[C@H](F)C6)nc(N5C[C@H]6CC[C@@H](C5)N6)c4c4cc(C)oc34)c12 [Example 45, 4-(1-((1R,5S)-3,8-diazabicyclo[3.2.1]octan-3-yl)-5-fluoro-3-(((2R,7aS)-2-fluorotetrahydro-1H-pyrrolizin-7a(5H)-yl)methoxy)-8-methylfuro[3,2-n]quinazolin-6-yl)-5-ethyl-6-fluoronaphthalen-2-ol] | 70 | 37 |  | 
